Assay results published in US10448639B2, “Fungicidal pyrazoles” (FMC CORPORATION, priority 2009, dated 2019).

Experiments:
[1] = test system: Puccinia recondita f. sp. tritici; test: Test I: wheat leaf rust, preventive spray on wheat seedlings, visual disease rating
Description: (§1) General protocol for preparing test suspensions for Tests A-J: the test compounds were first dissolved in acetone in an amount equal to 3% of the final volume and then suspended at the desired concentration (in ppm) in acetone and purified water (50/50 mix by volume) containing 250 ppm of the surfactant Trem® 014 (polyhydric alcohol esters). The resulting test suspensions were then used in Tests A-J. Spraying a 200 ppm test suspension to the point of run-off on the test plants was the equivalent of a rate of 500 g/ha. Unless otherwise indicated, the rating values indicate a 200 ppm test suspension was used. (An asterisk “*” next to the rating value indicates a 40 ppm test suspension was used.)
The test suspension was sprayed to the point of run-off on wheat seedlings. The following day the seedlings were inoculated with a spore suspension of Puccinia recondita f. sp. tritici (the causal agent of wheat leaf rust) and incubated in a saturated atmosphere at 20° C. for 24 h, and then moved to a growth chamber at 20° C. for 7 days, after which time visual disease ratings were made
A dash (-) indicates no test results.

Botrytis cinerea = test: Test B: tomato Botrytis, preventive spray on tomato seedlings, visual disease rating
Septoria tritici = test: Test G: wheat leaf blotch, preventive spray on wheat seedlings, visual disease rating
Alternaria solani = test: Test C: tomato early blight, preventive spray on tomato seedlings, visual disease rating
[2] = test system: Erysiphe graminis f sp. tritici; test: Test J: wheat powdery mildew, preventive spray on wheat seedlings, visual disease rating
Septoria nodorum = test: Test F: Septoria glume blotch, preventive spray on wheat seedlings, visual disease rating
Description: as §1
The test suspension was sprayed to the point of run-off on wheat seedlings. The following day the seedlings were inoculated with a spore suspension of Septoria nodorum (the causal agent of Septoria glume blotch) and incubated in a saturated atmosphere at 24° C. for 48 h, and then moved to a growth chamber at 20° C. for 6 days, after which time visual disease ratings were made.

[3] = test system: Puccinia recondita f. sp. tritici; test: Test H: wheat leaf rust, curative spray on inoculated wheat seedlings, visual disease rating
[4] = wheat leaf rust, preventive, 100 = 100% disease control, 0 = no control relative to controls
[5] = tomato Botrytis, 100 = 100% disease control, 0 = no control relative to controls
[6] = wheat leaf blotch, 100 = 100% disease control, 0 = no control relative to controls
[7] = tomato early blight, 100 = 100% disease control, 0 = no control relative to controls
[8] = wheat powdery mildew, 100 = 100% disease control, 0 = no control relative to controls
[9] = Septoria glume blotch, 100 = 100% disease control, 0 = no control relative to controls
[10] = wheat leaf rust, curative, 100 = 100% disease control, 0 = no control relative to controls

| SMILES | Test I rating (% disease control) [1, 4] [%] | Test B rating (% disease control) (Botrytis cinerea; [5]) [%] | Test G rating (% disease control) (Septoria tritici; [6]) [%] | Test C rating (% disease control) (Alternaria solani; [7]) [%] | Test J rating (% disease control) [2, 8] [%] | Test F rating (% disease control) (Septoria nodorum; [9]) [%] | Test H rating (% disease control) [3, 10] [%] | other results |
| --- | --- | --- | --- | --- | --- | --- | --- | --- |
| COc1cccc(Nc2c(-c3c(F)cccc3F)c(C)nn2C)c1 [compound 200] | 0 | 82 | 97 | 0 | 94 | 0 | 0 | – |
| COc1cc(F)c(-c2c(C)nn(C)c2Nc2ccc(F)cc2F)c(F)c1 [Compound 23, 4-(2,6-difluoro-4-methoxyphenyl)-N-(2,4-difluorophenyl)-1,3-dimethyl-1H-pyrazol-5-amine] | – | – | – | – | – | – | – | pest or weed control at 200 µg/mL ([1]; 192 h, read-out: Test I rating (% disease control)): 100%; pest or weed control at 200 µg/mL (Botrytis cinerea; Botrytis cinerea, in Solanum lycopersicum, 120 h, read-out: Test B rating (% disease control)): 98%; pest or weed control at 200 µg/mL (Septoria tritici; Zymoseptoria tritici, in Triticum aestivum, 504 h, read-out: Test G rating (% disease control)): 93%; pest or weed control at 200 µg/mL (Alternaria solani; Alternaria solani, in Solanum lycopersicum, 168 h, read-out: Test C rating (% disease control)): 100%; pest or weed control at 200 µg/mL ([2]; Blumeria graminis, in Triticum aestivum, 192 h, read-out: Test J rating (% disease control)): 100%; pest or weed control at 200 µg/mL (Septoria nodorum; Parastagonospora nodorum, in Triticum aestivum, 192 h, read-out: Test F rating (% disease control)): 99%; pest or weed control at 200 µg/mL ([3]; 144 h, read-out: Test H rating (% disease control)): 92% |
| Cc1nn(C)c(Nc2ccc(F)cc2)c1-c1ccccc1C(F)(F)F [compound 237] | 68 | 99 | 97 | 0 | 97 | 0 | 0 | – |
| Cc1nn(C)c(Oc2c(F)cc(C#N)cc2F)c1-c1cc(Cl)ccc1Cl [compound 275] | 97 | 97 | 99 | 46 | 99 | 0 | 8 | – |
| COc1ccc(Nc2c(-c3ccc(Cl)cc3)c(C)nn2C)cc1 [compound 56] | – | – | – | – | – | – | – | Test I rating (% disease control) ([1]; wheat leaf rust, preventive spray, 100 = 100% disease control, 0 = no control): 28%; Test B rating (% disease control) (Botrytis cinerea; tomato Botrytis, preventive spray, 100 = 100% disease control, 0 = no control): 43%; Test G rating (% disease control) (Septoria tritici; wheat leaf blotch, preventive spray, 100 = 100% disease control, 0 = no control): 99%; Test C rating (% disease control) (Alternaria solani; tomato early blight, preventive spray, 100 = 100% disease control, 0 = no control): 0%; Test J rating (% disease control) ([2]; wheat powdery mildew, preventive spray, 100 = 100% disease control, 0 = no control): 64%; Test F rating (% disease control) (Septoria nodorum; Septoria glume blotch on wheat, preventive spray, 100 = 100% disease control, 0 = no control): 0%; Test H rating (% disease control) ([3]; wheat leaf rust, curative spray, 100 = 100% disease control, 0 = no control): 0% |
| Cc1nn(C)c(Nc2cc(C#N)ccc2Cl)c1-c1ccc(F)cc1Cl [compound 235] | 0 | 84 | 17 | 0 | 79 | 0 | 0 | – |
| Cc1nn(C)c(Oc2c(F)cc(C#N)cc2F)c1-c1cccc(F)c1F [compound 274] | 0 | 8 | 96 | 0 | 69 | 0 | 8 | – |
| COc1cc(F)c(-c2c(C)nn(C)c2Oc2ccc(Cl)cc2)c(F)c1 [compound 206] | 99 | 99 | 99 | 99 | 100 | 84 | 41 | – |
| Cc1cc(Oc2c(-c3c(F)cc(F)cc3F)c(C)nn2C)ccc1Br [compound 165] | 0 | 0 | 52 | 0 | 99 | 0 | 8 | – |
| COc1ccc(-c2c(C)nn(C)c2Oc2ccc(C#N)cc2Cl)c(Cl)c1 [compound 311] | – | – | – | – | – | – | – | Test I disease control rating ([1]; wheat leaf rust, sprayed the day before inoculation, 100 = 100% disease control, 0 = no disease control relative to controls): 99%; Test B disease control rating (Botrytis cinerea; tomato Botrytis, 100 = 100% disease control, 0 = no disease control relative to controls): 100%; Test G disease control rating (Septoria tritici; wheat leaf blotch, sprayed the day before inoculation, 100 = 100% disease control, 0 = no disease control relative to controls): 100%; Test C disease control rating (Alternaria solani; tomato early blight, 100 = 100% disease control, 0 = no disease control relative to controls): 0%; Test J disease control rating ([2]; wheat powdery mildew, sprayed the day before inoculation, 100 = 100% disease control, 0 = no disease control relative to controls): 91%; Test F disease control rating (Septoria nodorum; Septoria glume blotch on wheat, 100 = 100% disease control, 0 = no disease control relative to controls): 60%; Test H disease control rating ([3]; wheat leaf rust, sprayed after inoculation, 100 = 100% disease control, 0 = no disease control relative to controls): 0% |
